Marks after values point to notes of the source that are not given here.
Experiment: EAE study: body weight
Format: in vivo, C57BI/6 mice
Conditions: for Mean Body Weight Change (% of Day −1): mean end body weight
Experimental: Experimental Method H: EAE in animals treated with a BET inhibitor and vehicle. Animals were assigned to the groups outlined in Table 38.
Compound A may be formulated as illustrated in Experimental Method A (see Table 2E.). A 40 mg/mL stock solution of Compound A in DMSO was prepared and aliquots stored at −20° C. On each day of preparation an e.g., 0.75 mL aliquot of thawed stock was diluted with an equal volume of DMSO. The remaining vehicle components were added to provide the highest dose and then diluted with vehicle to provide lower doses. A 30 mg/mL stock solution of FTY720 in ethanol was prepared and stored at −20° C. Daily, the stock solution was diluted with room temperature water to a final dosing concentration of 0.6 mg/mL. Formulated Compound A, FTY720 and vehicle were each at room temperature for dosing.
Female C57BI/6 mice (9 weeks old) were acclimated for seven days prior to study initiation. On Day-1, animals were assigned to groups in a balanced manner to achieve similar average weights across the different groups. Chronic EAE was induced in female C57BI/6 mice following immunization with an emulsion of MOG35-55/CFA on Day 0, followed by an injection of pertussis toxin two hours after the initial immunization. On Day 1, a second injection of pertussis toxin was administered 24 hours after the initial immunization. Mice were injected subcutaneously at two sites on the back with the MOG35-55/CFA emulsion (Hooke Kit™ MOG35-55/CFA Emulsion PTX). The first injection site was located approximately 1 cm caudal of the neckline (upper back), and the second injection site was approximately 2 cm cranial of the base of the tail (lower back). The injection volume was 0.1 mL for each injection. The pertussis toxin was administered at the described times through intraperitoneal injection at a concentration of 85 ng/dose for both injections.
Body weight was measured three times a week (Monday, Wednesday, and Friday) starting on Day-1. Animals were scored daily for EAE starting on Day 7. In-between scores were assigned when the clinical signs fell between two below defined scores.

[1] = Compound A 1 mg/kg (Group 2), Day 0
[2] = Compound A 1 mg/kg (Group 2), Day 2
[3] = Compound A 1 mg/kg (Group 2), Day 5
[4] = Compound A 1 mg/kg (Group 2), Day 7
[5] = Compound A 1 mg/kg (Group 2), Day 9
[6] = Compound A 1 mg/kg (Group 2), Day 12
[7] = Compound A 1 mg/kg (Group 2), Day 14
[8] = Compound A 1 mg/kg (Group 2), Day 16
[9] = Compound A 1 mg/kg (Group 2), Day 19
[10] = Compound A 1 mg/kg (Group 2), Day 21
[11] = Compound A 1 mg/kg (Group 2), Day 23
[12] = Compound A 1 mg/kg (Group 2), Day 27
[13] = Compound A 1 mg/kg (Group 2), Day 28
[14] = Compound A 1 mg/kg (Group 2), Day −1
[15] = Compound A 3 mg/kg (Group 3), Day 0
[16] = Compound A 3 mg/kg (Group 3), Day 2
[17] = Compound A 3 mg/kg (Group 3), Day 5
[18] = Compound A 3 mg/kg (Group 3), Day 7
[19] = Compound A 3 mg/kg (Group 3), Day 9
[20] = Compound A 3 mg/kg (Group 3), Day 12
[21] = Compound A 3 mg/kg (Group 3), Day 14
[22] = Compound A 3 mg/kg (Group 3), Day 16
[23] = Compound A 3 mg/kg (Group 3), Day 19
[24] = Compound A 3 mg/kg (Group 3), Day 21
[25] = Compound A 3 mg/kg (Group 3), Day 23
[26] = Compound A 3 mg/kg (Group 3), Day 27
[27] = Compound A 3 mg/kg (Group 3), Day 28
[28] = Compound A 3 mg/kg (Group 3), Day −1
[29] = Compound A 10 mg/kg (Group 4), Day 0
[30] = Compound A 10 mg/kg (Group 4), Day 2
[31] = Compound A 10 mg/kg (Group 4), Day 5
[32] = Compound A 10 mg/kg (Group 4), Day 7
[33] = Compound A 10 mg/kg (Group 4), Day 9
[34] = Compound A 10 mg/kg (Group 4), Day 12
[35] = Compound A 10 mg/kg (Group 4), Day 14
[36] = Compound A 10 mg/kg (Group 4), Day 16
[37] = Compound A 10 mg/kg (Group 4), Day 19
[38] = Compound A 10 mg/kg (Group 4), Day 21
[39] = Compound A 10 mg/kg (Group 4), Day 23
[40] = Compound A 10 mg/kg (Group 4), Day 27
[41] = Compound A 10 mg/kg (Group 4), Day 28
[42] = Compound A 10 mg/kg (Group 4), Day −1

Cn1cc(-c2ccccc2)c(-c2cn(C)c(=O)c3[nH]c(-c4cnn(C(F)(F)F)c4)cc23)cc1=O [Compound A, 6-methyl-4-(1-methyl-2-oxo-5-phenyl-1,2-dihydropyridin-4-yl)-2-(1-(trifluoromethyl)-1H-pyrazol-4-yl)-1,6-dihydro-7H-pyrrolo[2,3-c]pyridin-7-one]
Relative end weight (% of the mean Day-1 weight) (1 mg/kg): 100.7%
Relative end weight (% of the mean Day-1 weight) (3 mg/kg): 103%
Relative end weight (% of the mean Day-1 weight) (10 mg/kg): 106%
Mean Body Weight [1]: 20.3 g
Mean Body Weight (% of Day −1) [1]: 100.7 % of Day −1
Mean Body Weight [2]: 19.8 g
Mean Body Weight (% of Day −1) [2]: 98.4 % of Day −1
Mean Body Weight [3]: 20.0 g
Mean Body Weight (% of Day −1) [3]: 99.0 % of Day −1
Mean Body Weight [4]: 20.1 g
Mean Body Weight (% of Day −1) [4]: 99.8 % of Day −1
Mean Body Weight [5]: 21.4 g
Mean Body Weight (% of Day −1) [5]: 105.3 % of Day −1
Mean Body Weight [6]: 20.7 g
Mean Body Weight (% of Day −1) [6]: 102.1 % of Day −1
Mean Body Weight [7]: 19.9 g
Mean Body Weight (% of Day −1) [7]: 98.4 % of Day −1
Mean Body Weight [8]: 19.4 g
Mean Body Weight (% of Day −1) [8]: 95.7 % of Day −1
Mean Body Weight [9]: 19.6 g
Mean Body Weight (% of Day −1) [9]: 96.8 % of Day −1
Mean Body Weight [10]: 20.3 g
Mean Body Weight (% of Day −1) [10]: 99.9 % of Day −1
Mean Body Weight [11]: 20.7 g
Mean Body Weight (% of Day −1) [11]: 102.0 % of Day −1
Mean Body Weight [12]: 20.4 g
Mean Body Weight (% of Day −1) [12]: 100.4 % of Day −1
Mean Body Weight [13]: 20.4 g
Mean Body Weight (% of Day −1) [13]: 100.7 % of Day −1
Mean Body Weight [14]: 20.1 g
Mean Body Weight (% of Day −1) [14]: 100.0 % of Day −1
Mean Body Weight Change (% of Day −1) (Compound A 1 mg/kg): 100.7* % of Day −1
Mean Body Weight [15]: 20.3 g
Mean Body Weight (% of Day −1) [15]: 100.6 % of Day −1
Mean Body Weight [16]: 19.5 g
Mean Body Weight (% of Day −1) [16]: 96.7 % of Day −1
Mean Body Weight [17]: 19.6 g
Mean Body Weight (% of Day −1) [17]: 97.2 % of Day −1
Mean Body Weight [18]: 20.2 g
Mean Body Weight (% of Day −1) [18]: 100.0 % of Day −1
Mean Body Weight [19]: 20.5 g
Mean Body Weight (% of Day −1) [19]: 101.6 % of Day −1
Mean Body Weight [20]: 20.6 g
Mean Body Weight (% of Day −1) [20]: 102.1 % of Day −1
Mean Body Weight [21]: 20.0 g
Mean Body Weight (% of Day −1) [21]: 99.5 % of Day −1
Mean Body Weight [22]: 19.5 g
Mean Body Weight (% of Day −1) [22]: 96.9 % of Day −1
Mean Body Weight [23]: 19.5 g
Mean Body Weight (% of Day −1) [23]: 97.0 % of Day −1
Mean Body Weight [24]: 20.3 g
Mean Body Weight (% of Day −1) [24]: 101.5 % of Day −1
Mean Body Weight [25]: 20.8 g
Mean Body Weight (% of Day −1) [25]: 103.9 % of Day −1
Mean Body Weight [26]: 20.4 g
Mean Body Weight (% of Day −1) [26]: 101.8 % of Day −1
Mean Body Weight [27]: 20.6 g
Mean Body Weight (% of Day −1) [27]: 103.0 % of Day −1
Mean Body Weight [28]: 20.2 g
Mean Body Weight (% of Day −1) [28]: 100.0 % of Day −1
Mean Body Weight Change (% of Day −1) (Compound A 3 mg/kg): 103.0*** % of Day −1
Mean Body Weight [29]: 20.5 g
Mean Body Weight (% of Day −1) [29]: 101.1 % of Day −1
Mean Body Weight [30]: 19.8 g
Mean Body Weight (% of Day −1) [30]: 97.9 % of Day −1
Mean Body Weight [31]: 20.0 g
Mean Body Weight (% of Day −1) [31]: 98.9 % of Day −1
Mean Body Weight [32]: 20.4 g
Mean Body Weight (% of Day −1) [32]: 101.0 % of Day −1
Mean Body Weight [33]: 20.6 g
Mean Body Weight (% of Day −1) [33]: 101.9 % of Day −1
Mean Body Weight [34]: 20.2 g
Mean Body Weight (% of Day −1) [34]: 99.9 % of Day −1
Mean Body Weight [35]: 19.6 g
Mean Body Weight (% of Day −1) [35]: 97.2 % of Day −1
Mean Body Weight [36]: 19.1 g
Mean Body Weight (% of Day −1) [36]: 94.7 % of Day −1
Mean Body Weight [37]: 20.0 g
Mean Body Weight (% of Day −1) [37]: 99.1 % of Day −1
Mean Body Weight [38]: 20.7 g
Mean Body Weight (% of Day −1) [38]: 102.3 % of Day −1
Mean Body Weight [39]: 21.1 g
Mean Body Weight (% of Day −1) [39]: 104.2 % of Day −1
Mean Body Weight [40]: 21.0 g
Mean Body Weight (% of Day −1) [40]: 104.0 % of Day −1
Mean Body Weight [41]: 21.4 g
Mean Body Weight (% of Day −1) [41]: 106.0 % of Day −1
Mean Body Weight [42]: 20.2 g
Mean Body Weight (% of Day −1) [42]: 100.0 % of Day −1
Mean Body Weight Change (% of Day −1) (Compound A 10 mg/kg): 106.0*** % of Day −1

— US20260217701A1, “SELECTIVE BET INHIBITORS AND USES THEREOF” (Tay Therapeutics Limited, priority 2022, published 2026)
